Results taken from EP2265632B1, “CD4-RELATED POLYPEPTIDES AND METHODS OF USE” (priority 2008, dated 2009).

Assays:
gp120BaL = experiment: Epitope occlusion assay (ELISA): competition with anti-gp120 MAbs for immobilized gp120; format: binding, HIV-1; conditions: for effect on binding of MAb 654-30D to gp120: CD4bs-directed MAb 654-30D 0.2 nM; for effect on binding of MAb 654-30D to gp120 / effect on binding of MAb b12 to gp120 / effect on binding of MAb 2G12 to gp120 / effect on binding of MAb B4a1 to gp120: 2dCD4 0 to 1 µM or peptides 0 to 1 mM; for effect on binding of MAb b12 to gp120: CD4bs-directed MAb b12 0.2 nM; for effect on binding of MAb 2G12 to gp120: CD4bs-independent MAb 2G12 0.2 nM; for effect on binding of MAb B4a1 to gp120: CD4bs-independent MAb F425 B4a1 (V3 loop) 0.2 nM
recombinant gp120BaL [1] = experiment: Electrophoretic mobility shift assay (EMSA) with [14C]-acetylated peptides, scintillation counting of excised gp120; format: binding, HIV-1; conditions: for peptide associated with excised gp120: 5 µM gp120BaL, 500 µM radiolabeled peptide, no reducing agent
Protocol: Peptide N-terminal [^14C]-Acetylation. Hel-S, Hel-Cs and Hel-C were radioactively labeled by N-terminal acetylation according to the method of Fraenkel-Conrat and Colloms with modifications. Briefly, peptides were reconstituted in an ice cold saturated solution of sodium acetate (> 3 M) to a concentration of 5 mM. [^14C]-Acetic anhydride (specific activity 116 mCi/mmol, Amersham Biosciences, UK) was then added to 100 µl of the reconstituted peptide solution in two 1 µl installments over 15 minutes, and the labeling reactions were incubated for 2 hours on ice. After addition of the final acetic anhydride installment, the reaction concentrations of both peptide and acetic anhydride were 5 mM, and the samples contained 1% toluene and 500 nCi/µl of [^14C]. An equal volume (100 µl) of ice cold PBS (pH 7.4) was then added to each reaction. For buffer exchange and removal of unincorporated radiolabel, the [^14C]-labeled peptides were purified chromatographically using Sephadex G-10 spin columns (Sigma, UK) equilibrated in PBS (pH 7.4). The concentration of the purified labeled peptides was determined by measuring A280, and the labeling efficiencies were analysed by discontinuous PAGE and fluorescence autoradiography, as well as by liquid scintillation counting using Packard Tri-Carb 2200 Liquid Scintillation Analyzer. Labeled peptides were stored in 50 µl aliquots at -80°C.
Electrophoretic Mobility Shift Assay (EMSA). Peptide-gp120 binding reactions were set up in 50 µl and contained 5 µM of pure recombinant gp120BaL and 500 µM of radio labeled Hel-S, Hel-Cs or Hel-C in PBS (pH 7.4). Reactions were incubated at 25°C for 3 hours and then stopped by the addition of an equal volume (50 µl) of either reducing agent-free loading buffer (0.1 M Tris, 20% glycerol, 8% SDS and 0.02% Coomassie blue G-250) or the same buffer containing 1, 10 or 100 mM of DTT. The samples were incubated at 80°C for 3 minutes before loading on a 20 × 20 cm 6 - 20% gradient Tris/Tricine polyacrylamide gel, and were resolved at a constant 40 V for 16 hours at room temperature. After electrophoresis, the gel was rinsed thoroughly with H2O and then stained lightly by incubation in a solution containing 10% methanol, 10% acetic acid and 0.02% Coomassie Blue R-250 for 10 minutes with gentle shaking. The gel was rinsed with H20, and bands corresponding to gp120 were excised using a gel punch and placed in 1.5 ml microcentrifuge tubes. The gp120-containing polyacrylamide slices were solubilized by incubation at 37°C for 16 hours in 400 µl of a solution containing 30% H2O2 and 0.03% ammonium hydroxide. The dissolved polyacrylamide samples were added to 2 ml of Aquasol-2 scintillation cocktail (Perkin Elmer, USA), and radioactive emissions expressed as counts per minute (cpm) measured by scintillation counting.
Hel-C Binds gp120 through disulfide linkage on gp120. We adopted two independent approaches to evaluate the potential of Hel-C to bind recombinant gp120. First, we used an electrophoretic mobility shift assay (EMSA) to detect gp120-bound peptides following resolution of peptide/protein mixtures on denaturing gradient polyacrylamide gels. This method also enabled us to determine whether the mechanism of binding could be related to the establishment of disulphide bonds between the peptides and target gp120, by measuring the proportion of bound peptide in response to increasing doses of DTT. For detection, we decided to incorporate as small a label as possible into the peptide, so that steric effects of the labeling procedure would be minimal (such as would be the case with larger fluorescent/antigenic tags), and that the peptide would be able to adopt a secondary structure as close as possible to the R59-Q64 α-helix chain in CD4. We therefore labeled Hel-C and the control peptides Hel-S and Hel-Cs with [^14C]-acetic anhydride, which incorporated a single [^14C]-acetyl group on the peptide N-termini. […]

[2] = Peptide analyses: oxidation state by discontinuous Tris/Tricine PAGE with densitometry; format: physicochemical; conditions: for peptide existing as monomers: densitometric analysis; for peptide existing as monomers / oxidation state of the peptide: no reducing agent; for oxidation state of the peptide: reconstituted in PBS (pH 7.4), Tris/Tricine PAGE
Protocol: Peptide analyses. Synthetic 7-mer peptides Hel-S (RRSLWDQ, SEQ ID NO:10), Hel-Cs (DLRQCWR, SEQ ID NO:27) and Hel-C (RRCLWDQ, SEQ ID NO:2) were analysed by discontinuous PAGE according to the method of Schagger and von Zagau with modifications. Briefly, 2.5 µg of each lyophilized peptide reconstituted in pure H2O was mixed with a reducing agent-free loading buffer (0.1 M Tris, 20% glycerol, 8% SDS and 0.02% Coomassie blue G-250), incubated at 80°C for 3 minutes and loaded onto a 17.5% Tris/Tricine gel. Samples were resolved at 20 mAper gel until stacked (1-2 hours) and at 35 mA for 16 hours through the resolving gel. The gel was fixed by incubation in a 5% glutaraldehyde solution for 1 hour and then stained with Coomassie Blue-R250. Peptide monomer/dimer ratios were calculated by densitometry using Quantity One® software (BioRad, Hercules, CA (USA)). To evaluate the redox states of cysteine-containing peptides further, reduced Glutathione (GSH) (Sigma, UK), β-mercaptoethanol and dithiothreitol (DTT) were included in the sample loading buffer at concentrations ranging from 0 to 400 mM, and the samples were resolved and analysed as described above.
Peptide Analyses. We analysed the oxidation states of the synthetic peptides Hel-S, Hel-Cs and Hel-C following reconstitution in PBS (pH 7.4) by high resolution Tris/Tricine PAGE (resolving buffer pH = 8.0). As expected, in aqueous solution at close to neutral pH, the wild-type CD4-mimetic peptide Hel-S consisted of a pure monomer of molecular weight equal to approximately 1 kDa (predicted Mw = 976 g/mol). […] The latter are evident as bands of approximately 2 kDa, which presumably result from intermolecular disulfide bond formation. […] We then treated Hel-C with the thiol-containing reducing compounds β-mercaptoethanol (β-ME) and 1,4-dithiothreitol (DTT) to determine relative effects on cysteine oxidation in this peptide.

recombinant gp120BaL [3] = experiment: Surface plasmon resonance (Biacore 3000) on immobilized gp120; format: binding, HIV-1
Protocol: Surface Plasmon Resonance. All surface Plasmon resonance (SPR) experiments were performed on a BIA3000 optical biosensor (Biacore Inc., Uppsala, Sweden). Recombinant gp120BaL was immobilized on CM5 sensor chips by amine coupling according to the manufacturer's instructions. Briefly, a solution of 0.2 M EDC and 0.05 M NHS was used to activate carboxyl groups on the sensor surface at a flow rate of 5 µL/min for 10 minutes. Recombinant gp120BaL, dissolved in 100 mM sodium acetate buffer (pH 5.5) to a final concentration of 0.05 µM, was passed over the sensor chip surface at a flow rate of 5 µL/min until an immobilization level of 5000 RU was achieved. Excess carboxyl groups were capped by injection of 1 M ethanolamine (pH 8.0) at a flow rate of 5 µL/min for 5 minutes. Unbound ligand was removed by injecting 10 mM glycine (pH 2.5) at a flow rate of 5 µL/min for 2 minutes. In all experiments, the neighbouring flow cell was treated as mentioned above without the immobilization of gp120BaL, and this served as a reference surface. Prior to all experiments, the functionalities of the gp120 surfaces were tested by binding sCD4 at 500 nM in HEPES-buffered saline supplemented with 0.15 M NaCl (HBS-N, pH7.4). Analyte solutions were prepared in HBS-N at least 30 minutes prior to injection. All binding experiments were performed in duplicate at 25°C. For peptide binding analyses, increasing concentrations of peptide (from 0 to 500 µM) were passed over the surface at a flow rate of 5 µL/min, with a 5 minute association phase and a 6 minute dissociation phase. Surfaces were regenerated with a 20 mM sodium hydroxide (NaOH) solution between consecutive peptide analyses. The integrity of the surfaces was tested after each regeneration for sCD4 binding. Buffer injections and control surface binding were subtracted for all reported data.
Recombinant gp120BaL was immobilized on CM5 sensorchips and exposed to increasing concentrations of Hel-S, Hel-Cs or Hel-C.
The reasons for the slight difference are likely to be related to the different target gp120s used in these studies. […] Our data thus fit to a direct binding model consistent with 1:1 stoichiometry, and closely match previously published results.

Substance | effect on binding of MAb 654-30D to gp120 (gp120BaL) | effect on binding of MAb b12 to gp120 (gp120BaL) | effect on binding of MAb 2G12 to gp120 (gp120BaL) | effect on binding of MAb B4a1 to gp120 (gp120BaL) | peptide associated with excised gp120 (recombinant gp120BaL [1]) | peptide existing as monomers [2] | oxidation state of the peptide [2] | also measured
DLRQCWR [Hel-Cs] | did not compete | did not compete | did not compete | did not compete | small amount | less than 10% | mixture of monomers and dimers | effect on binding of MAb b12 to gp120 (gp120BaL; listed as scrambled): does not
RINNIPWSEAMM [12p1, reference compound] | – | – | – | – | – | – | – | calculated Rmax (recombinant gp120BaL [3]; 5000 RU gp120BaL surface): approximately 67 RU; amount bound (recombinant gp120BaL [3]; just over 100 µM peptide, 5000 RU gp120 BaL surface): approximately 45 RU
RRCLWDQ [Hel-C, linear CD4-mimetic 7-mer peptide, R58 to Q64 of mature CD4 with S60C mutation] | dose-dependent inhibitory effect | dose-dependent inhibitory effect | did not compete | did not compete | significant quantity | less than 10% | mixture of monomers and dimers | effect on binding of MAb b12 to gp120 (gp120BaL; listed as S85C): appear to block; relief of Hel-C-mediated inhibition of b12-gp120 binding (gp120BaL; peptide pre-treated with 20 mM DTT): complete; relief of Hel-C-mediated inhibition of b12-gp120 binding (gp120BaL; peptide pre-treated with 20 mM β-mercaptoethanol): only partially rescued b12 binding; effect of reducing compounds on the amount of 2G12 bound in the presence or absence of peptide (gp120BaL; peptide pre-treated with 20 mM β-mercaptoethanol or DTT): no effect; amount of bound peptide relative to the amount bound in the absence of any reducing compound (recombinant gp120BaL [1]; 100 mM DTT): 10%; mode of binding to gp120 (EMSA) (recombinant gp120BaL [1]; C14-radioactively labeled peptide, denaturing gels, absence and presence of reducing agents): binds covalently; amount of Hel-C bound to gp120 (recombinant gp120BaL [1]; increasing amounts of DTT added): decreased; proportion of Hel-C monomer ([2]; DTT at 10 mM): 50%; effect of DTT on cysteine oxidation ([2]; DTT at 200 mM): completely abolished the ability of the peptide to oxidize; effect of β-ME on cysteine oxidation ([2]; β-ME at 200 mM): unable to monomerize the peptide completely; mode of binding to gp120 (SPR binding kinetics) (recombinant gp120BaL [3]; both monomeric and trimeric gp120 proteins): binds covalently; binding to recombinant gp120 (recombinant gp120BaL [3]; conclusion from EMSA and SPR collectively): able to bind recombinant gp120
RRSLWDQ [Hel-S] | did not compete | did not compete | did not compete | did not compete | no detectable | – | pure monomer | effect on binding of MAb b12 to gp120 (gp120BaL; listed as native): does not
